Results taken from US10004701B2, “Methods and compositions for treating infection” (UNIVERSITY OF ROCHESTER, priority 2012, dated 2018).
Like-named read-outs stand apart in the source and are kept apart here.

Experiments:
Assay in all cases: AK assay 384-well format, Prestwick library screening
[1] = system: A. baumannii strain 98-37-09; type: cell-based, Acinetobacter baumannii; conditions: 50 μM final drug concentration; for fold induction at 50 µM: Acinetobacter baumannii, 983709, 3 h
[2] = system: K. pneumoniae; type: cell-based, Klebsiella pneumoniae; conditions: 50 μM final drug concentration; for fold induction at 50 µM: Klebsiella pneumoniae, 3 h
[3] = system: P. aeruginosa; type: cell-based, Pseudomonas aeruginosa; conditions: 50 μM final drug concentration; for fold induction at 50 µM: Pseudomonas aeruginosa, 3 h
[4] = system: E. coli; type: cell-based, Escherichia coli; conditions: 50 μM final drug concentration; for fold induction at 50 µM: Escherichia coli, 3 h
[5] = system: E. cloacae; type: cell-based, Enterobacter cloacae; conditions: 50 μM final drug concentration; for fold induction at 50 µM: Enterobacter cloacae, 3 h
[6] = system: S. aureus strain USA300-0114; type: cell-based, Staphylococcus aureus; conditions: 50 μM final drug concentration; for fold induction at 50 µM: Staphylococcus aureus, USA300, 3 h
[7] = system: E. faecium; type: cell-based, Enterococcus faecium; conditions: 50 μM final drug concentration; for fold induction at 50 µM: Enterococcus faecium, 3 h
[8] = planktonic, cutoff for positive 3-fold increase
[9] = planktonic A. baumannii, cutoff for positive-scoring molecules 3-fold increase
[10] = planktonic K. pneumoniae, cutoff for positive-scoring molecules 3-fold increase
[11] = planktonic P. aeruginosa, cutoff for positive-scoring molecules 3-fold increase
[12] = planktonic E. coli, cutoff for positive-scoring molecules 3-fold increase
[13] = planktonic E. cloacae, cutoff for positive-scoring molecules 3-fold increase
[14] = planktonic S. aureus, cutoff for positive-scoring molecules 3-fold increase
[15] = planktonic E. faecium, cutoff for positive-scoring molecules 3-fold increase
[16] = planktonic, cutoff for positive-scoring molecules 3-fold increase

COc1ccc2c(c1)[C@]13CCCC[C@@H]1[C@H](C2)N(C)CC3
fold induction at 50 µM ([1]; planktonic A. baumannii, […], read-out: AK-based Prestwick Library Screening Results, A. baumannii (increase in extracellular AK activity)): 0.8 | fold induction at 50 µM ([2]; planktonic K. pneumoniae, […], read-out: AK-based Prestwick Library Screening Results, K. pneumoniae (increase in extracellular AK activity)): 0.7 | fold induction at 50 µM ([3]; planktonic P. aeruginosa, […], read-out: AK-based Prestwick Library Screening Results, P. aeruginosa (increase in extracellular AK activity)): 0.8 | fold induction at 50 µM ([4]; planktonic E. coli, […], read-out: AK-based Prestwick Library Screening Results, E. coli (increase in extracellular AK activity)): 0.8 | fold induction at 50 µM ([5]; planktonic E. cloacae, […], read-out: AK-based Prestwick Library Screening Results, E. cloacae (increase in extracellular AK activity)): 1.1 | fold induction at 50 µM ([6]; planktonic S. aureus, […], read-out: AK-based Prestwick Library Screening Results, S. aureus (increase in extracellular AK activity)): 0.7 | fold induction at 50 µM ([7]; planktonic E. faecium, […], read-out: AK-based Prestwick Library Screening Results, E. faecium (increase in extracellular AK activity)): 0.9

COc1cc2c(cc1OC)C(C)NCC2.Cl (stereo not drawn)
AK-based Prestwick Library Screening Results, A. baumannii (fold increase in extracellular AK activity) [1, 8]: 1.0 | AK-based Prestwick Library Screening Results, K. pneumoniae (fold increase in extracellular AK activity) [2, 8]: 1.0 | AK-based Prestwick Library Screening Results, P. aeruginosa (fold increase in extracellular AK activity) [3, 8]: 1.2 | AK-based Prestwick Library Screening Results, E. coli (fold increase in extracellular AK activity) ([4]; planktonic, […]): 1.3 | AK-based Prestwick Library Screening Results, E. cloacae (fold increase in extracellular AK activity) [5, 8]: 1.5 | AK-based Prestwick Library Screening Results, S. aureus (fold increase in extracellular AK activity) [6, 8]: 1.0 | AK-based Prestwick Library Screening Results, E. faecium (fold increase in extracellular AK activity) [7, 8]: 0.9

Cc1ccc(Cl)c(Nc2ccccc2C(=O)O)c1Cl
fold induction at 50 µM ([1]; planktonic A. baumannii, 384-well, cutoff for positive-scoring molecules 3-fold increase, read-out: AK-based Prestwick Library Screening Results: A. baumannii (increase in extracellular AK activity)): 1.2 | fold induction at 50 µM ([2]; planktonic K. pneumoniae, 384-well, cutoff for positive-scoring molecules 3-fold increase, read-out: AK-based Prestwick Library Screening Results: K. pneumoniae (increase in extracellular AK activity)): 1 | fold induction at 50 µM ([3]; planktonic P. aeruginosa, 384-well, cutoff for positive-scoring molecules 3-fold increase, read-out: AK-based Prestwick Library Screening Results: P. aeruginosa (increase in extracellular AK activity)): 1.2 | fold induction at 50 µM ([4]; planktonic E. coli, 384-well, cutoff for positive-scoring molecules 3-fold increase, read-out: AK-based Prestwick Library Screening Results: E. coli (increase in extracellular AK activity)): 1.1 | fold induction at 50 µM ([5]; planktonic E. cloacae, 384-well, cutoff for positive-scoring molecules 3-fold increase, read-out: AK-based Prestwick Library Screening Results: E. cloacae (increase in extracellular AK activity)): 1.4 | fold induction at 50 µM ([6]; planktonic S. aureus, 384-well, cutoff for positive-scoring molecules 3-fold increase, read-out: AK-based Prestwick Library Screening Results: S. aureus (increase in extracellular AK activity)): 0.6 | fold induction at 50 µM ([7]; planktonic E. faecium, 384-well, cutoff for positive-scoring molecules 3-fold increase, read-out: AK-based Prestwick Library Screening Results: E. faecium (increase in extracellular AK activity)): 1.2

CC(C)NCC(O)c1cc(O)cc(O)c1.CC(C)NCC(O)c1cc(O)cc(O)c1.O=S(=O)(O)O (stereo not drawn)
AK-based Prestwick Library Screening Results, A. baumannii (increase in extracellular AK activity) [1, 9]: 0.9 | AK-based Prestwick Library Screening Results, K. pneumoniae (increase in extracellular AK activity) [2, 10]: 0.7 | AK-based Prestwick Library Screening Results, P. aeruginosa (increase in extracellular AK activity) [3, 11]: 0.9 | AK-based Prestwick Library Screening Results, E. coli (increase in extracellular AK activity) [4, 12]: 1.0 | AK-based Prestwick Library Screening Results, E. cloacae (increase in extracellular AK activity) [5, 13]: 1.0 | AK-based Prestwick Library Screening Results, S. aureus (increase in extracellular AK activity) [6, 14]: 0.6 | AK-based Prestwick Library Screening Results, E. faecium (increase in extracellular AK activity) [7, 15]: 0.9

O=C(O)Cc1cc(I)c(Oc2ccc(O)c(I)c2)c(I)c1
AK-based Prestwick Library Screening Results: A. baumannii (increase in extracellular AK activity) ([1]; planktonic A. baumannii, 384-well, cutoff for positive-scoring molecules 3-fold increase): 1.1 | AK-based Prestwick Library Screening Results: K. pneumoniae (increase in extracellular AK activity) ([2]; planktonic K. pneumoniae, 384-well, cutoff for positive-scoring molecules 3-fold increase): 1.0 | AK-based Prestwick Library Screening Results: P. aeruginosa (increase in extracellular AK activity) ([3]; planktonic P. aeruginosa, 384-well, cutoff for positive-scoring molecules 3-fold increase): 1.2 | AK-based Prestwick Library Screening Results: E. coli (increase in extracellular AK activity) ([4]; planktonic E. coli, 384-well, cutoff for positive-scoring molecules 3-fold increase): 1.1 | AK-based Prestwick Library Screening Results: E. cloacae (increase in extracellular AK activity) ([5]; planktonic E. cloacae, 384-well, cutoff for positive-scoring molecules 3-fold increase): 1.5 | AK-based Prestwick Library Screening Results: S. aureus (increase in extracellular AK activity) ([6]; planktonic S. aureus, 384-well, cutoff for positive-scoring molecules 3-fold increase): 0.4 | AK-based Prestwick Library Screening Results: E. faecium (increase in extracellular AK activity) ([7]; planktonic E. faecium, 384-well, cutoff for positive-scoring molecules 3-fold increase): 1.3

CN(N=O)C(=O)N[C@H]1C(O)O[C@H](CO)[C@@H](O)[C@@H]1O (mixture of isomers) [Streptozotocin]
AK-based Prestwick Library Screening Results, A. baumannii (fold increase in extracellular AK activity) [1, 16]: 0.7 | AK-based Prestwick Library Screening Results, K. pneumoniae (fold increase in extracellular AK activity) [2, 16]: 1.4 | AK-based Prestwick Library Screening Results, P. aeruginosa (fold increase in extracellular AK activity) [3, 16]: 0.7 | AK-based Prestwick Library Screening Results, E. coli (fold increase in extracellular AK activity) [4, 16]: 0.7 | AK-based Prestwick Library Screening Results, E. cloacae (fold increase in extracellular AK activity) [5, 16]: 0.7 | AK-based Prestwick Library Screening Results, S. aureus (fold increase in extracellular AK activity) [6, 16]: 1.2 | AK-based Prestwick Library Screening Results, E. faecium (fold increase in extracellular AK activity) [7, 16]: 2.6

Cl.NCC(O)c1ccc(O)cc1 (racemic) [(+,−)-Octopamine hydrochloride]
AK-based Prestwick Library Screening Results, A. baumannii (fold increase in extracellular AK activity) ([1]; […]): 1.3 | AK-based Prestwick Library Screening Results, K. pneumoniae (fold increase in extracellular AK activity) ([2]; […]): 1.1 | AK-based Prestwick Library Screening Results, P. aeruginosa (fold increase in extracellular AK activity) ([3]; […]): 1.0 | AK-based Prestwick Library Screening Results, E. coli (fold increase in extracellular AK activity) ([4]; […]): 1.3 | AK-based Prestwick Library Screening Results, E. cloacae (fold increase in extracellular AK activity) ([5]; […]): 1.4 | AK-based Prestwick Library Screening Results, S. aureus (fold increase in extracellular AK activity) ([6]; […]): 1.3 | AK-based Prestwick Library Screening Results, E. faecium (fold increase in extracellular AK activity) ([7]; […]): 1.0

CNCC(O)c1ccc(O)cc1 (racemic) [(+,−)-Synephrine]
AK-based Prestwick library screening result, A. baumannii (fold increase in extracellular AK activity) ([1]; planktonic A. baumannii, positive cutoff 3-fold increase): 1.1 | AK-based Prestwick library screening result, K. pneumoniae (fold increase in extracellular AK activity) ([2]; planktonic K. pneumoniae, positive cutoff 3-fold increase): 1.0 | AK-based Prestwick library screening result, P. aeruginosa (fold increase in extracellular AK activity) ([3]; planktonic P. aeruginosa, positive cutoff 3-fold increase): 1.1 | AK-based Prestwick library screening result, E. coli (fold increase in extracellular AK activity) ([4]; planktonic E. coli, positive cutoff 3-fold increase): 1.3 | AK-based Prestwick library screening result, E. cloacae (fold increase in extracellular AK activity) ([5]; planktonic E. cloacae, positive cutoff 3-fold increase): 1.3 | AK-based Prestwick library screening result, S. aureus (fold increase in extracellular AK activity) ([6]; planktonic S. aureus, positive cutoff 3-fold increase): 1.0 | AK-based Prestwick library screening result, E. faecium (fold increase in extracellular AK activity) ([7]; planktonic E. faecium, positive cutoff 3-fold increase): 1.1

CN(Cc1cnc2nc(N)nc(N)c2n1)c1ccc(C(=O)N[C@@H](CCC(=O)O)C(=O)O)cc1 (racemic) [Amethopterin (R,S)]
AK-based Prestwick Library Screening Results, A. baumannii (fold increase in extracellular AK activity) [1, 8]: 0.9 | AK-based Prestwick Library Screening Results, K. pneumoniae (fold increase in extracellular AK activity) [2, 8]: 0.8 | AK-based Prestwick Library Screening Results, P. aeruginosa (fold increase in extracellular AK activity) [3, 8]: 1.1 | AK-based Prestwick Library Screening Results, E. coli (fold increase in extracellular AK activity) [4, 8]: 1.1 | AK-based Prestwick Library Screening Results, E. cloacae (fold increase in extracellular AK activity) [5, 8]: 1.3 | AK-based Prestwick Library Screening Results, S. aureus (fold increase in extracellular AK activity) [6, 8]: 1.0 | AK-based Prestwick Library Screening Results, E. faecium (fold increase in extracellular AK activity) [7, 8]: 0.9

CC(=O)NC(CC(=O)O)C(=O)O (racemic) [Aspartic acid, N-acetyl (R,S)]
AK-based Prestwick Library Screening Results, A. baumannii (increase in extracellular AK activity) [1, 9]: 0.6 | AK-based Prestwick Library Screening Results, K. pneumoniae (increase in extracellular AK activity) [2, 10]: 0.5 | AK-based Prestwick Library Screening Results, P. aeruginosa (increase in extracellular AK activity) [3, 11]: 0.6 | AK-based Prestwick Library Screening Results, E. coli (increase in extracellular AK activity) [4, 12]: 0.6 | AK-based Prestwick Library Screening Results, E. cloacae (increase in extracellular AK activity) [5, 13]: 0.7 | AK-based Prestwick Library Screening Results, S. aureus (increase in extracellular AK activity) [6, 14]: 0.5 | AK-based Prestwick Library Screening Results, E. faecium (increase in extracellular AK activity) [7, 15]: 0.9

NCC(CC(=O)O)c1ccc(Cl)cc1 (racemic) [Baclofen (R,S)]
AK-based Prestwick Library Screening Results, A. baumannii (increase in extracellular AK activity) ([1]; 384-well format, […]): 0.4 | AK-based Prestwick Library Screening Results, K. pneumoniae (increase in extracellular AK activity) ([2]; 384-well format, […]): 0.6 | AK-based Prestwick Library Screening Results, P. aeruginosa (increase in extracellular AK activity) ([3]; 384-well format, […]): 0.3 | AK-based Prestwick Library Screening Results, E. coli (increase in extracellular AK activity) ([4]; 384-well format, […]): 0.5 | AK-based Prestwick Library Screening Results, E. cloacae (increase in extracellular AK activity) ([5]; 384-well format, […]): 0.3 | AK-based Prestwick Library Screening Results, S. aureus (increase in extracellular AK activity) ([6]; 384-well format, […]): 0.4 | AK-based Prestwick Library Screening Results, E. faecium (increase in extracellular AK activity) ([7]; 384-well format, […]): 0.8

O.Oc1cc(O)c2c(c1)OC(c1ccc(O)c(O)c1)C(O)C2 (racemic) [Catechin-(+,−) hydrate]
AK-based Prestwick Library Screening Results, A. baumannii (fold increase in extracellular AK activity) [1, 16]: 0.7 | AK-based Prestwick Library Screening Results, K. pneumoniae (fold increase in extracellular AK activity) [2, 16]: 0.6 | AK-based Prestwick Library Screening Results, P. aeruginosa (fold increase in extracellular AK activity) [3, 16]: 0.6 | AK-based Prestwick Library Screening Results, E. coli (fold increase in extracellular AK activity) [4, 16]: 0.7 | AK-based Prestwick Library Screening Results, E. cloacae (fold increase in extracellular AK activity) [5, 16]: 1.0 | AK-based Prestwick Library Screening Results, S. aureus (fold increase in extracellular AK activity) [6, 16]: 0.7 | AK-based Prestwick Library Screening Results, E. faecium (fold increase in extracellular AK activity) [7, 16]: 0.9
